# ChEMBL document CHEMBL3351316, “Scaffold hopping approach on the route to selective tankyrase inhibitors” (Eur J Med Chem, 2014)
# Target: T1, Tankyrase 1/2 (Homo sapiens, UniProt Q9H2K2+O95271)
# T1 sequence (Q9H2K2 whole entry): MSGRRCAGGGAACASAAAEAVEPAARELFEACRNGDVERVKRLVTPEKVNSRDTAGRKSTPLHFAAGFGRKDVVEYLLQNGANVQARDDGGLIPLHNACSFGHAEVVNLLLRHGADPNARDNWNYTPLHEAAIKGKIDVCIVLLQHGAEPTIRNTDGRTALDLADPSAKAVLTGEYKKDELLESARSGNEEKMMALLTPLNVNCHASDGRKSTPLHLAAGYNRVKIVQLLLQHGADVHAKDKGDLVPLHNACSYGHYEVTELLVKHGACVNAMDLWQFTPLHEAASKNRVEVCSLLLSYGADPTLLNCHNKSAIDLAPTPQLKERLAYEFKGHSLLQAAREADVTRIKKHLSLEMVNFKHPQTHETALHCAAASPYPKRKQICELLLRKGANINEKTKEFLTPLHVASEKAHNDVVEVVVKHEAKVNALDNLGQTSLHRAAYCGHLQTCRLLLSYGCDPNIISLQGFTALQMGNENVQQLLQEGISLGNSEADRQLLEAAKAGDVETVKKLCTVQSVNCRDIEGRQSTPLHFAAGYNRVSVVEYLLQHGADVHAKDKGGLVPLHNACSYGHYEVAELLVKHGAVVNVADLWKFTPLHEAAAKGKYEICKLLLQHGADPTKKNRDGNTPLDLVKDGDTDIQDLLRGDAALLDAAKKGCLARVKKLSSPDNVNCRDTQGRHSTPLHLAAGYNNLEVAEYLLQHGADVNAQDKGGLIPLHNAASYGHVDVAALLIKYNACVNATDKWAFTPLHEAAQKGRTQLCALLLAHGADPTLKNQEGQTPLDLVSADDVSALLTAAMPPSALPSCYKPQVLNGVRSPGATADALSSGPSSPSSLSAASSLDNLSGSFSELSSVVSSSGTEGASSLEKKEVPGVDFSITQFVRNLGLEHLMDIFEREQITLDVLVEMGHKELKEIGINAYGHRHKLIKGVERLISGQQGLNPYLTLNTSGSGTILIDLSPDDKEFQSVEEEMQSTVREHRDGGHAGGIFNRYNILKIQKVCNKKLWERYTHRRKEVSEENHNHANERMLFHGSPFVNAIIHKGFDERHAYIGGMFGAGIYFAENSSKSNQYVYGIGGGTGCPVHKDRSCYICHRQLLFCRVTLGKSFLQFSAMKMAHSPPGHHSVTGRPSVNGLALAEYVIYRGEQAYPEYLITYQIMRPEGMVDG
# T1 sequence (O95271 whole entry): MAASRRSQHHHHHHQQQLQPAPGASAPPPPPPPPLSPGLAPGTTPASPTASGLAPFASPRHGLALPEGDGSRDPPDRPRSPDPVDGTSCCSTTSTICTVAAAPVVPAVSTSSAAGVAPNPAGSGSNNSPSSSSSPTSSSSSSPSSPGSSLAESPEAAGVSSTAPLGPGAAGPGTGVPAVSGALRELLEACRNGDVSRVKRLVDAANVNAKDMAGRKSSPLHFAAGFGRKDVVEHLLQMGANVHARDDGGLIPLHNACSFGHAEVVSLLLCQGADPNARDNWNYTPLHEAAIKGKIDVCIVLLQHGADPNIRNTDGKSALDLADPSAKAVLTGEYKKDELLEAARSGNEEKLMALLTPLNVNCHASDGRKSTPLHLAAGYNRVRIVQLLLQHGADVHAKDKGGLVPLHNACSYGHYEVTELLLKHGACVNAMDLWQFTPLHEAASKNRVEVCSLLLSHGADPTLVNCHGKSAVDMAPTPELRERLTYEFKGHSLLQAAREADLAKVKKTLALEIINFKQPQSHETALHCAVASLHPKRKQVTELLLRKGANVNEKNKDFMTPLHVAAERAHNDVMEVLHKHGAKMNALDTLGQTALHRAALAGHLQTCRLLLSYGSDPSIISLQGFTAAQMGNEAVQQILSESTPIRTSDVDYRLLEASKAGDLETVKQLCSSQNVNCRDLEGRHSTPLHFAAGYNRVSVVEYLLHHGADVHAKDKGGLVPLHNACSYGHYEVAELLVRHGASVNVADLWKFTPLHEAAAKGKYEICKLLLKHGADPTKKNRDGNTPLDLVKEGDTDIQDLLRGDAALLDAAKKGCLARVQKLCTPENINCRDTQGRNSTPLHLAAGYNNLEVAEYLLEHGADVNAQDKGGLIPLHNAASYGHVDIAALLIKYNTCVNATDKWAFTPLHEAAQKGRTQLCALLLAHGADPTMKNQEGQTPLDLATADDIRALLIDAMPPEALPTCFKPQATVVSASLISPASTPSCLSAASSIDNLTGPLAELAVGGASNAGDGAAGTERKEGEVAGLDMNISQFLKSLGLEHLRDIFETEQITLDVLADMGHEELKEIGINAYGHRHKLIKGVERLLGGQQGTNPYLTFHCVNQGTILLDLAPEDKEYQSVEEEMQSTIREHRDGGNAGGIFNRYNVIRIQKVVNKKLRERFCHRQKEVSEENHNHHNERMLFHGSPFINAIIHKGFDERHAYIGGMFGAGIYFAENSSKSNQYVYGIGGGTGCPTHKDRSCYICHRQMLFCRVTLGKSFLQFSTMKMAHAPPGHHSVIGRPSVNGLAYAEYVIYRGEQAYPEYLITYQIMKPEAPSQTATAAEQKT
# Test: Inhibition of tankyrase in human DLD1 cells assessed as reduction in Wnt activity after 24 hrs by TCF-luciferase reporter gene assay
# Type: cell-based
# Settings: dld-1
structure (smiles),measurement,value
CC(C)(C)c1ccc(-c2nc3c(sc4ccccc43)c(=O)[nH]2)cc1,IC50,832 nM
